From publication PMC10905995, “Strategy for the Enzymatic Acylation of the Apple Flavonoid Phloretin Based on Prior α-Glucosylation” (Journal of Agricultural and Food Chemistry, 2024)
Values after ≈ are worked out from the molar mass of the structure shown.

Legend:
[1] = parameters: method as in doi:10.1002/adsc.202100201; details: cited from earlier work
[2] = Aqueous solubility (saturated conditions, 3 days, UV 297 nm); assay type: physicochemical; details: water, 25 °C, thermodynamic from solid
Procedure: The compounds were incubated at 25 °C in water (saturated conditions) during 3 days under orbital stirring (1000 rpm). Then, the samples were centrifuged, and the supernatants (200 μL) were analyzed in triplicate in a 96-well plate, using a phloretin calibration curve in methanol (0–200 μg/mL). The absorbance was measured at 297 nm in a UV–vis spectrophotometer (Tecan Infinite M200).

[3] = In vitro percutaneous absorption, Franz static diffusion cells; assay type: in vitro ADME; details: pig skin biopsies, 24 h exposure; for effect of acylation on skin absorption: versus phloretin and 4′-O-α-glucoside
Procedure: The study was carried out in vitro with pig biopsies placed on Franz static diffusion cells (3 mL, 1.86 cm^2 of exposed area, […], Lara-Spiral, Courtenon, France) in order to determine the distribution of the active compound (API) at the different skin layers after an exposure time of 24 h. All materials and procedures for this test have been described in a previous report employing phloretin and two glucosides.[33] The concentration of the extracted active compound was determined with the HPLC method described before.
Figure 6 In vitro percutaneous absorption of acylated derivatives of phloretin and their precursors (phloretin and its 4′-O-α-glucoside) within the different skin layers. W is the surface excess, SC is the stratum corneum, E is the epidermis, D is the dermis, FR is the fluid receptor, and Perc. Abs. is the percutaneous absorption. The results are expressed as μg/cm^2 of the active pharmaceutical ingredient (API). Mean values ± standard deviations, n = 3; *p < 0.05 vs phloretin; ^#p < 0.05 vs α-Glc-phloretin.

SMILES	aqueous solubility greater than aglycone ([1]; versus phloretin aglycone) [fold]	solubility ([1]; water, 25 °C, data available in a previous article) [mg/L]	solubility at 3 days [2] [µg/mL]	effect of acylation on skin absorption [3]	percutaneous absorption, increase versus phloretin and 4′-O-α-glucoside [3]
O=C(CCc1ccc(O)cc1)c1c(O)cc(O[C@H]2O[C@H](CO)[C@@H](O)[C@H](O)[C@H]2O)cc1O [phloretin 4′-O-α-D-glucoside, phloretin 4′-O-α-D-glucopyranoside]	71	1644 ± 101 (≈ 3770 µM)			
CCCCCCCC(=O)OC[C@H]1O[C@H](Oc2cc(O)c(C(=O)CCc3ccc(O)cc3)c(O)c2)[C@H](O)[C@@H](O)[C@@H]1O [1a, phloretin 4′-O-(6-O-octanoyl)-α-D-glucopyranoside]			22.1 ± 0.5 (≈ 39.3 µM)	no significant effect	
CCCCCCCCCCCC(=O)OC[C@H]1O[C@H](Oc2cc(O)c(C(=O)CCc3ccc(O)cc3)c(O)c2)[C@H](O)[C@@H](O)[C@@H]1O [1b, phloretin 4′-O-(6-O-lauroyl)-α-D-glucopyranoside]			6 ± 0.2 (≈ 9.7 µM)		approximately 3 fold
CCCCCCCCCCCCCCCC(=O)OC[C@H]1O[C@H](Oc2cc(O)c(C(=O)CCc3ccc(O)cc3)c(O)c2)[C@H](O)[C@@H](O)[C@@H]1O [1c, phloretin 4′-O-(6-O-palmitoyl)-α-D-glucopyranoside]			7.1 ± 0.3 (≈ 10.5 µM)	no significant effect	
